Experimental data from patent US10392412B2, “Platinum anticancer agents” (THE REGENTS OF THE UNIVERSITY OF CALIFORNIA, priority 2015, dated 2019).
Like-named read-outs stand apart in the source and are kept apart here. Marks after values point to notes of the source that are not given here.

Assays:
[1] = test system: HT29 cells; assay: Cytotoxicity CellTiter-Glo; assay type: cell-based, human; conditions: read-out: IC50 (50% growth inhibition); HT29, Colon; 72 hours
Method: (§1) Human cancer cell lines were purchased from UCSF Cell Culture Facility (CCF) or obtained through Material Transfer.
(§2) The range of platinum concentrations used in the studies are 5 μM-100 μM. After 72 hours of treatment, the medium were removed and replaced with 50 μL of the media plus 50 μL of the CellTiterGlo reagent. The number of viable cells in culture will be determined based on quantitation of the ATP present, which is an indicator of the number of active cells. Concentration response graphs were generated for each compound using GraphPad Prism software. The graphs were analyzed using a curve fit for sigmoid dose-response, and IC50 values were derived. The results were expressed as mean IC50 values with the standard error of the mean.

[2] = test system: HCT116 cells; assay: Cytotoxicity CellTiter-Glo; assay type: cell-based, human; conditions: read-out: IC50 (50% growth inhibition); HCT116, Colon; 72 hours
Method: as §1, §2

[3] = test system: PC3 cells; assay: Cytotoxicity CellTiter-Glo; assay type: cell-based, human; conditions: read-out: IC50 (50% growth inhibition); PC3, Prostate; 72 hours
Method: as §1, §2

[4] = test system: A549 cells; assay: Cytotoxicity CellTiter-Glo; assay type: cell-based, human; conditions: read-out: IC50 (50% growth inhibition); A549, Non-small cell lung; 72 hours
Method: as §1, §2

[5] = test system: DU145 cells; assay: Cytotoxicity CellTiter-Glo; assay type: cell-based, human; conditions: read-out: IC50 (50% growth inhibition); DU145, Prostate; 72 hours
Method: as §1, §2

[6] = test system: H226 cells; assay: Cytotoxicity CellTiter-Glo; assay type: cell-based, human; conditions: read-out: IC50 (50% growth inhibition); H226, Non-small cell squamous; 72 hours
Method: as §1, §2

[7] = test system: AsPC1 cells; assay: Cytotoxicity CellTiter-Glo; assay type: cell-based, human; conditions: read-out: IC50 (50% growth inhibition); AsPC1, Pancreas; 72 hours
Method: as §1, §2

[8] = Maximum tolerated dose study: blood chemistry test (Table 7)
Method: The mice used in MTD were given standard chow devoid of added folic acid (low folate diet) (See, Leamon C P et al., J. Pharmacol. Exp. Ther. 327: 918-925). […] Therefore we also designed a MTD study in mice treated with low folate diet. Food consumption on the day before injection (Day −1) was recorded and then it was monitored every other day. […] Blood for clinical chemistry was collected if possible. Liver, kidney and bone marrow were collected. One side of each tissue (except bone marrow) will be fixed in 4-10% formalin for future histology analysis, and the rest of tissue will be cut into pieces, snap frozen, and stored at −80° C. until analysis. Blood samples for clinical chemistry were centrifuged at 8000 rpm for 10 min at 4° C. within 1 hour of collection. Plasma was collected into 1.5 mL eppendorf tubes and stored at −80° C. until analysis. The measured parameters were alanine transaminase (ALT), aspartate transaminase (AST), alkaline phosphatase (ALP), total bilirubin, glucose, blood urea nitrogen (BUN), creatinine, and electrolytes. All experiments were housed in a virus-free, temperature controlled facility on a 12-h light-dark cycle.

[9] = test system: genomic DNA; assay: Platinum-DNA adducts by ICP-MS in HEK293 cells; assay type: cell-based, human
Method: Method to quantify platinum-DNA adducts by ICP-MS has been previously described (5,6). In brief, HEK293 cells were seeded in 6-well poly-D-lysine plate (cell density=0.5×10^6 cells/well). […] After 2 hours, the cells were washed twice with cold HBBS. The platinum content associated with genomic DNA was determined as described elsewhere. Genomic DNA was isolated from the cell pellets using Genomic DNA purification kit (Promega) and the DNA-bound platinum was determined by ICP-MS, which was normalized to total DNA content (determined by absorption spectrometry at 260 nm).

[10] = biological target: T1, SLC19A1 (Homo sapiens, UniProt P41440); assay: IC50 with and without folic acid, transporter SLC19A1 (Table 8); assay type: cell-based
T1 sequence (P41440 1-591): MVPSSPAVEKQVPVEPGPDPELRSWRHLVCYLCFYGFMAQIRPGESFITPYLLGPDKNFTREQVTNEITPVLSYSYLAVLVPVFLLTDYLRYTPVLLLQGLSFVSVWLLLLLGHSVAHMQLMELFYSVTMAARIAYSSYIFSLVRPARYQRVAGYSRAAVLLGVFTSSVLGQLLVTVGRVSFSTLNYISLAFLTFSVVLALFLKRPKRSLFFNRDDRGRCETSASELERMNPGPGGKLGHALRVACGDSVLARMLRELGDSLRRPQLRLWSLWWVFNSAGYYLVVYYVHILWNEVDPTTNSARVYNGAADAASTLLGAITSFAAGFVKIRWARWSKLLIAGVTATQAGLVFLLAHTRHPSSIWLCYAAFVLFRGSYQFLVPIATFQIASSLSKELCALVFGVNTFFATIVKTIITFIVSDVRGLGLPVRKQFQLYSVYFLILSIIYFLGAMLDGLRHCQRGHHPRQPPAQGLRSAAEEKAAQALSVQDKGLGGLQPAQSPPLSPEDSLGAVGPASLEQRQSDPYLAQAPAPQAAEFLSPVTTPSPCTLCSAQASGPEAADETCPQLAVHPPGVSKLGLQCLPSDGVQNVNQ

[11] = test system: A2780 cells; assay: Cytotoxicity CellTiter-Glo; assay type: cell-based, human; conditions: read-out: IC50 (50% growth inhibition); A2780, Ovary; 72 hours
[12] = 7.5 mpk i.v. once a week, listed as AT-69

[Pt(DMSO)methotrexate(Cl)] [SM-69]
IC50 [1]: 5.9 ± 1.6 µM
IC50 [2]: 4.8 ± 0.6 µM
IC50 [3]: 6.3 ± 1.5 µM
IC50 [4]: 1200 ± 700 nM
IC50 [5]: 1500 ± 200 nM
IC50 [6]: 16.4 ± 13.1 µM
IC50 [7]: 7 ± 0.4 µM
Glucose ([8]; 2.5 mpk i.v. once a week): 80.25
Na:K ([8]; 2.5 mpk i.v. once a week): 33.50
alanine transaminase, ALT (GPT) ([8]; 2.5 mpk i.v. once a week): 52.75
alkaline phosphatase (ALP) ([8]; 2.5 mpk i.v. once a week): 99.00
aspartate transaminase, AST (GOT) ([8]; 2.5 mpk i.v. once a week): 252.25
blood urea nitrogen (BUN) ([8]; 2.5 mpk i.v. once a week): 41.73
creatinine (CRE) ([8]; 2.5 mpk i.v. once a week): <0.2
total bilirubin (TBIL) ([8]; 2.5 mpk i.v. once a week): 0.15
Glucose ([8]; 5 mpk i.v. once a week): 73.00
Na:K ([8]; 5 mpk i.v. once a week): 33.25
alanine transaminase, ALT (GPT) ([8]; 5 mpk i.v. once a week): 83.75
alkaline phosphatase (ALP) ([8]; 5 mpk i.v. once a week): 117.25
aspartate transaminase, AST (GOT) ([8]; 5 mpk i.v. once a week): 447.25
blood urea nitrogen (BUN) ([8]; 5 mpk i.v. once a week): 65.63
creatinine (CRE) ([8]; 5 mpk i.v. once a week): <0.2
total bilirubin (TBIL) ([8]; 5 mpk i.v. once a week): 0.53
Glucose ([8]; 7.5 mpk i.v. once a week): 40.67*
Na:K ([8]; 7.5 mpk i.v. once a week): 31.67
alanine transaminase, ALT (GPT) ([8]; 7.5 mpk i.v. once a week): 258.33*
alkaline phosphatase (ALP) ([8]; 7.5 mpk i.v. once a week): 140.33*
aspartate transaminase, AST (GOT) ([8]; 7.5 mpk i.v. once a week): 573.67
blood urea nitrogen (BUN) ([8]; 7.5 mpk i.v. once a week): did not observe a significant difference
creatinine (CRE) ([8]; 7.5 mpk i.v. once a week): did not observe a significant difference
total bilirubin (TBIL) ([8]; 7.5 mpk i.v. once a week): 0.40
blood urea nitrogen (BUN) [8, 12]: 65.40
creatinine (CRE) [8, 12]: <0.2
platinum content associated with genomic DNA, dose dependence [9]: higher with higher doses
platinum content associated with genomic DNA (platinum-DNA adducts) ([9]; 10 μM, 2 hours): form platinum-DNA adducts similarly to cisplatin
IC50 ([10]; Folic acid (1 mM), read-out: IC50 with substrate or inhibitor): 42.7 ± 4.11 µM
IC50 ([10]; without substrate or inhibitor, read-out: IC50): 13.5 ± 1.62 µM
IC50 [11]: 1200 ± 200 nM
